We go through two compounds from paper PMC6781309, “Assessing Drug Interaction and Pharmacokinetics of Loxoprofen in Mice Treated with CYP3A Modulators” (Pharmaceutics, 2019).

In general, AUC(0-inf) refers to the area under the concentration-time curve extrapolated to infinity. By Cmax is commonly meant the highest concentration seen after dosing. A word on the Tmax: it is the time from dosing to the highest level.

Molecules are shown by their SMILES. Values joined by “and” are separate entries in the source; they are usually repeats but may differ in a detail not shown here. Identical values can stand only once. Like-named read-outs stand apart in the source and are kept apart here.

In one data set the test system is CYP3A. On the set-up: method as in PMID 17965516. Conditions: human liver microsomes; cited from earlier work.
A short description of data set [1]: Relative concentration of LOX and its metabolites in hepatic portal vein plasma 10 min post-LOX (HRMS). It counts as in vivo, Male ICR mice. Conditions: hepatic portal vein plasma 10 min after LOX 20 mg/kg oral, n = 3; for Relative concentration in plasma (DEX average % of area, VH corn oil = 100): DEX 40 mg/kg i.p. 3 days; for Relative concentration in plasma (KTC average % of area, VH 10% ethanol = 100): KTC 60 mg/kg i.p. single dose. On the procedure:
The acclimatized animals were divided into eight groups, with each group containing 3 mice: groups I and II, vehicle (corn oil); groups III and IV, DEX-treated; groups V and VI, vehicle (10% Ethanol); and groups VII and VIII, KTC-treated group. […] Then, animals were fasted for 12 hours with free access to water before starting the experiment. After fasting, LOX (20 mg/kg) was administered orally to […].
Similarly, blood from groups II, IV, VI, and VIII was collected from the hepatic portal vein 10 min post-LOX administration to identify metabolites of LOX and to analyze drug–drug interactions. Plasma from these samples was prepared as explained above. Then, 300 µL of ACN having 0.1% formic acid and 5 µM of the IS were mixed with 100 µL of each plasma sample. […] Supernatants were transferred into tubes and dried using a Labconco Speed Vac (Labconco Corporation, Kansas City, MO, USA). […] Each supernatant was transferred into an LCMS vial, and 5 µL were injected into a high-resolution mass spectrometer (HRMS).
HRMS coupled with ultrahigh performance liquid chromatography (UHPLC) was used to detect hydroxy-LOX and other metabolites of LOX. The UHPLC system, Dionex Ultimate 3000 (Dionex Softron GmbH, Germering, Germany) consisted of an HPG-3200SD Standard binary pump, a WPS 3000 TRS analytical autosampler, and a TCC-3000 SD column compartment. In this experiment, the HRMS was a Q Exactive Focus quadrupole-Orbitrap MS (Thermo Fisher Scientific, Bremen, Germany) equipped with a heated electrospray ionization (HESI-II) ion probe.
LOX was detected as a deprotonated ion [M-H]^− at m/z 245.1175 in negative ion mode. Therefore, negative ion mode was used with the following optimized conditions for LOX: spray voltage of 2.5 kV, capillary temperature of 320 °C, auxiliary gas at 12 aux unit, aux gas heater temperature of 200 °C, sheath gas at 35 aux units, and S-lens RF level of 50. LOX and its metabolites were separated using a 150 mm × 2.1 mm, 2.6-μm reverse-phase liquid chromatography column, Kinetex® C18 column (Phenomenex, CA, USA) at 40 °C. Furthermore, MS-grade solvents were used as the mobile phase in gradient elution mode: 0.1% aqueous formic acid as Solvent A and 0.1% formic acid in ACN as Solvent B. The flow was set to 0.22 mL/min with a gradient condition of Solvent B as 10% between 0 and 0.5 min, 10–50% between 0.5 and 21.5 min, 50–95% between 21.5 and 22.5 min, 95% between 22.5 and 25.5 min, 95–10% between 25.5 and 25.6 min, and 10% between 25.6 and 30 min.

Data set [2] is described as follows: Plasma pharmacokinetics of LOX, cis-LOX and trans-LOX after oral LOX in mice pretreated with DEX, KTC or vehicle. It counts as in vivo, Male ICR mice. Conditions: for AUC(0-inf) / AUC(0-t) / Cmax / half-life / Tmax: male, ICR, mouse, plasma, po, 20 mg/kg, mouse plasma, LOX 20 mg/kg oral, mean ± SE, n = 3; for Cmax: read-out: Cmax; for half-life: read-out: T1/2 (elimination half-life); for Tmax: read-out: Tmax (converted). The procedure: The acclimatized animals were divided into eight groups, with each group containing 3 mice: groups I and II, vehicle (corn oil); groups III and IV, DEX-treated; groups V and VI, vehicle (10% Ethanol); and groups VII and VIII, KTC-treated group. […] Then, animals were fasted for 12 hours with free access to water before starting the experiment. […]
After the oral administration of LOX, blood from groups I, III, V, and VII was collected from the tail at 0, 5, 10, 15, 30, 60, 120, and 240 min post-administration and placed into sodium heparin-containing tubes. After the last blood collection, the mice were sacrificed by cervical dislocation. Plasma was then prepared by centrifuging the blood at 4000× g for 15 min at 4 °C and stored at −80 °C until analysis. For analysis, each sample was prepared by mixing plasma (10 µL) and 90 µL of ACN containing 0.1% formic acid and 5 µM of tolbutamide as an internal standard (IS). […] Finally, 10 µL of sample supernatant was injected into the LC-MS/MS system. The PK parameters (the maximum plasma concentration [Cmax], time to reach the maximum plasma concentration [Tmax], elimination half-life [T1/2], and area under the plasma concentrations [AUC]) were analyzed by WinNonlin software (Version 2.1, Scientific Consulting, Louisville, KY, USA).
A Shimadzu Prominence UFLC system (Kyoto, Japan) connected to a TSQ vantage triple quadrupole mass spectrometer with a HESI-II spray source incorporated with a DGU-20A5 degasser, an LC-20AD pump, a SIL-20A autosampler, and a CTO-20A column oven was used for the analyses. A shim-pack GIS C18 column (150 × 3.0 mm, […]) was used to separate analytes in the samples. Mobile phases A and B were composed of water with formic acid and ACN with 0.1% formic acid, respectively, and the flow rate was 0.50 mL/min at 40 °C. The gradient conditions were as follows: 20% of B between 0 and 0.25 min, 20–80% of B between 0.25 and 9.75 min, 80–20% of B between 9.75 and 10 min, and 20% of B between 10 and 13 min. The MS was operated under the following conditions: electrospray ionization in negative mode at 3.0 kV, capillary temperature at 350 °C, vaporizer temperature at 300 °C, sheath gas pressure at 35 Arb, and auxiliary gas pressure at 10 Arb. Finally, Xcalibur software (Thermo Fisher Scientific Inc., Waltham, MA, USA) was used for data analysis.

Where [3] appears, read: pretreated DEX 40 mg/kg i.p. 3 days.
The mark [4] stands for this setting: pretreated DEX 40 mg/kg i.p. 3 days, read-out: AUC(0–60) (converted).
The mark [5] stands for this setting: pretreated KTC 60 mg/kg i.p. single dose.
The mark [6] stands for this setting: pretreated VH (10% ethanol) i.p. single dose.
Where [7] appears, read: pretreated VH (10% ethanol) i.p. single dose, read-out: AUC(0–60) (converted).
Where [8] appears, read: pretreated VH (corn oil) i.p. 3 days.
Setting [9] is: pretreated VH (corn oil) i.p. 3 days, read-out: AUC(0–60) (converted).

`CC(C(=O)O)c1ccc(CC2CCCC2=O)cc1` (centres unmarked) [LOX, 2-(4-((2-Oxocyclopentyl)methyl)phenyl)propanoic acid, reference compound]: the “Effect on the metabolism of tacrolimus” value in the data set with CYP3A is on record as “slightly inhibited”. In addition, the “Relative concentration in plasma (DEX average % of area, VH corn oil = 100)” value in data set [1] is 74.1% and 74.1 ± 6.3%. Besides, the “Relative concentration in plasma (KTC average % of area, VH 10% ethanol = 100)” value in data set [1] is 178.2% and 178.2 ± 8.3%. Also, the “Detection in plasma at later time points” value in data set [2] (blood collected for up to 240 min after LOX 20 mg/kg oral) is recorded as “not detected after 60 min”. The AUC(0-inf) was 937 ng·h/mL in data set [2] (setting [3]), 1150 ng·h/mL in data set [2] (setting [5]), 985 ng·h/mL in data set [2] (setting [6]) and 1700 ng·h/mL in data set [2] (setting [8]). Also, the AUC(0-t) in data set [2] (setting [4]) was 892 ng·h/mL; in data set [2] (setting [5]), 1110 ng·h/mL; in data set [2] (setting [7]), 912 ng·h/mL; in data set [2] (setting [9]), 1600 ng·h/mL. Also, the Cmax stood at 2500 ± 200 ng/mL in data set [2] (setting [3]), 3500 ± 500 ng/mL in data set [2] (setting [5]), 2700 ± 300 ng/mL in data set [2] (setting [6]) and 4800 ± 900 ng/mL in data set [2] (setting [8]). In addition, the half-life turned out to be 12 ± 0.7 min in data set [2] (setting [3]), 12.2 ± 0.9 min in data set [2] (setting [5]), 14.6 ± 1.1 min in data set [2] (setting [6]) and 14.9 ± 0.6 min in data set [2] (setting [8]). Besides, the Tmax in data set [2] (setting [3]), in data set [2] (setting [5]), in data set [2] (setting [6]) and in data set [2] (setting [8]) was 5 min throughout.

For `C[C@H](C(=O)O)c1ccc(C[C@H]2CCC[C@@H]2O)cc1` [trans-LOX, (2S)-2-[4-[[(1R,2S)-2-hydroxycyclopentyl]methyl]phenyl]propanoic acid], the “Relative concentration in plasma (DEX average % of area, VH corn oil = 100)” value in data set [1] (listed as M1) is listed as 80.07%. Also, the entries for the “Relative concentration in plasma (KTC average % of area, VH 10% ethanol = 100)” value in data set [1] and in data set [1] (listed as M1) were 158.9 ± 11.9% and 158.93%, respectively. Besides, the AUC(0-inf) in data set [2] (setting [3]) is 1430 ng·h/mL; in data set [2] (setting [5]), 1580 ng·h/mL; in data set [2] (setting [6]), 1520 ng·h/mL; in data set [2] (setting [8]) it was 2580 ng·h/mL. Besides, the AUC(0-t) was 1130 ng·h/mL in data set [2] (setting [4]), 1340 ng·h/mL in data set [2] (setting [5]), 1170 ng·h/mL in data set [2] (setting [7]) and 2290 ng·h/mL in data set [2] (setting [9]). Further, the Cmax came out at 2100 ± 200 ng/mL in data set [2] (setting [3]), 3100 ± 300 ng/mL in data set [2] (setting [5]), 2100 ± 200 ng/mL in data set [2] (setting [6]) and 4400 ± 500 ng/mL in data set [2] (setting [8]). In addition, the half-life came to 26.4 ± 1.6 min in data set [2] (setting [3]), 19.8 ± 0.7 min in data set [2] (setting [5]), 26 ± 0.5 min in data set [2] (setting [6]) and 18.2 ± 0.6 min in data set [2] (setting [8]). For the same compound, the Tmax in data set [2] (setting [3]) is 10.4 min; in data set [2] (setting [5]) it was 11.7 min; in data set [2] (setting [6]) it was 11.6 min; in data set [2] (setting [8]), 9.1 min.
